For the experiment, the system named is P388 leukemia ip, CD2F1 mice, survival T/C. Kind of experiment: NCI In Vivo Anticancer Drug Screen. Data for tumor model P388 Leukemia (intraperitoneal) in CD2F1 (CDF1) mice. To be noted: endpoint: median survival time, higher = longer survival. Summed up: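 Mice carrying the transplanted tumor received test compound or vehicle. Survival was recorded in each group, and the value is the treated-group measurement divided by that of the vehicle-treated control group.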

The mark [1] stands for this setting: dose: 50.0 mg/kg/injection, schedule: Q01DX005 (ip), vehicle: saline with Tween-80.
[2] abbreviates: dose: 100.0 mg/kg/injection, schedule: Q01DX005 (ip), vehicle: saline with Tween-80.
Setting [3] is: dose: 60.0 mg/kg/injection, schedule: Q01DX005 (ip), vehicle: Klucel (hydroxypropylcellulose) (HPC).
Where [4] appears, read: dose: 120.0 mg/kg/injection, schedule: Q01DX005 (ip), vehicle: Klucel (hydroxypropylcellulose) (HPC).
[5] abbreviates: dose: 240.0 mg/kg/injection, schedule: Q01DX005 (ip), vehicle: Klucel (hydroxypropylcellulose) (HPC).
The mark [6] stands for this setting: dose: 25.0 mg/kg/injection, schedule: Q01DX005 (ip), vehicle: saline with Tween-80.
The mark [7] stands for this setting: dose: 50.0 mg/kg/injection, schedule: Q01DX005 (ip), vehicle: Klucel (hydroxypropylcellulose) (HPC).
[8] abbreviates: dose: 100.0 mg/kg/injection, schedule: Q01DX005 (ip), vehicle: Klucel (hydroxypropylcellulose) (HPC).
Setting [9] is: dose: 200.0 mg/kg/injection, schedule: Q01DX005 (ip), vehicle: Klucel (hydroxypropylcellulose) (HPC).
Where [10] appears, read: dose: 60.0 mg/kg/injection, schedule: Q01DX005 (ip), vehicle: saline with Tween-80.
Setting [11] is: dose: 120.0 mg/kg/injection, schedule: Q01DX005 (ip), vehicle: saline with Tween-80.
[12] abbreviates: dose: 240.0 mg/kg/injection, schedule: Q01DX005 (ip), vehicle: saline with Tween-80.

The structures appear in SMILES notation. Several values for one entry are separate records, joined by “and”; a condition that tells them apart may be missing. Identical values can stand only once. Inconclusive results and toxic doses are left out.

Take `Cc1ccc(S(=O)(=O)N(O)c2ccc(C)cc2C)cc1`: the T/C is, setting by setting: under setting [1], 112 % of control; under setting [2], 107 % of control.

Turning to `COC(=O)C[N+](C)(C)Cc1ccccc1`, the T/C is 97 % of control (dose: 50.0 mg/kg/injection, schedule: Q01DX009 (ip), vehicle: DMSO) and 99 % of control (dose: 100.0 mg/kg/injection, schedule: Q01DX009 (ip), vehicle: DMSO).

Take `CN1C(=S)C2(C1c1ccccc1)C(C)(C)CCCC2(C)C` (configuration not stated): the T/C (dose: 100.0 mg/kg/injection, schedule: Q01DX001 (ip), vehicle: saline with Tween-80) is 92 % of control; the T/C (dose: 200.0 mg/kg/injection, schedule: Q01DX001 (ip), vehicle: saline with Tween-80) was 92 % of control; the T/C (dose: 400.0 mg/kg/injection, schedule: Q01DX001 (ip), vehicle: saline with Tween-80) is 87 % of control.

Regarding `c1ccc(C2=NC(=c3ccc(=C4N=C(c5ccccc5)C(c5ccccc5)=N4)cc3)N=C2c2ccccc2)cc1`, the T/C is, setting by setting: under setting [3], 90 % of control; under setting [4], 90 % of control; under setting [5], 100 % of control.

Turning to `O=C1C2CC3CC1CC(Cl)(C3)C2`, the T/C was 112 % of control under setting [1] and 98 % of control under setting [2].

Turning to `CCNc1nc(Cl)nc(NC(C)C)n1`, the T/C (dose: 50.0 mg/kg/injection, schedule: Q04DX003 (ip), vehicle: saline with Tween-80) was 91 % of control; the T/C (dose: 100.0 mg/kg/injection, schedule: Q04DX003 (ip), vehicle: saline with Tween-80) is 87 % of control; the T/C (dose: 200.0 mg/kg/injection, schedule: Q04DX003 (ip), vehicle: saline with Tween-80) is 91 % of control.

As for `COc1cc(O)cc2c1C(=O)C(C)O2` (configuration not stated), the T/C is, setting by setting: under setting [3], 101 % of control; under setting [4], 101 % of control; under setting [5], 91 % of control.

Take `OCc1ccc2ccc3ccc(CO)nc3c2n1`: the T/C (dose: 12.5 mg/kg/injection, schedule: Q01DX005 (ip), vehicle: saline with Tween-80) was 97 % of control; the T/C under setting [6] is 111 % of control; the T/C under setting [1] is 104 % of control and 109 % of control; the T/C under setting [2] is 113 % of control.

For `CCOC(=O)C1=C(C)O/C(=C/c2ccco2)C1=O`, the T/C is 103 % of control (dose: 25.0 mg/kg/injection, schedule: Q01DX009 (ip), vehicle: Klucel (hydroxypropylcellulose) (HPC)); 109 % of control (dose: 50.0 mg/kg/injection, schedule: Q01DX009 (ip), vehicle: Klucel (hydroxypropylcellulose) (HPC)); 110 % of control and 111 % of control (dose: 100.0 mg/kg/injection, schedule: Q01DX009 (ip), vehicle: Klucel (hydroxypropylcellulose) (HPC)).

With `CC1C=CC(C)C2C(=O)C3C(C)C=CC(C)C3C(=O)C12` (configuration not stated), the T/C is, setting by setting: under setting [7], 93 % of control; under setting [8], 97 % of control; under setting [9], 87 % of control.

On to `CC1(C)Cc2ccccc2/C1=C/c1ccccn1`, for which the T/C under setting [10] is 98 % of control, the T/C under setting [11] is 100 % of control and the T/C under setting [12] was 108 % of control.

`CCN(CC)C(=O)C(N)Cc1ccc(OC)c(N(CCCl)CCCl)c1` (configuration not stated): the T/C (dose: 6.25 mg/kg/injection, schedule: Q01DX009 (ip), vehicle: saline) was 113 % of control; the T/C (dose: 6.25 mg/kg/injection, schedule: Q01DX009 (ip), vehicle: suspension in saline) was 116 % of control; the T/C (dose: 25.0 mg/kg/injection, schedule: Q01DX009 (ip), vehicle: saline) is 150 % of control; the T/C (dose: 25.0 mg/kg/injection, schedule: Q01DX009 (ip), vehicle: suspension in saline) is 150 % of control; the T/C (dose: 50.0 mg/kg/injection, schedule: Q01DX009 (ip), vehicle: saline) is 177 % of control; the T/C (dose: 50.0 mg/kg/injection, schedule: Q01DX009 (ip), vehicle: suspension in saline) was 172 % of control.

Turning to `CC1=CC(=O)C=CC1(C)C(Cl)(Cl)Cl` (configuration not stated), the T/C by setting is: (dose: 50.0 mg/kg/injection, schedule: Q01DX009 (ip), vehicle: saline with Tween-80) 110 % of control; (dose: 100.0 mg/kg/injection, schedule: Q01DX009 (ip), vehicle: saline with Tween-80) 110 % of control; (dose: 200.0 mg/kg/injection, schedule: Q01DX009 (ip), vehicle: saline with Tween-80) 105 % of control.

On to `O=C(Nc1cccc(NC(=O)c2nn[nH]n2)n1)c1nn[nH]n1`, for which the T/C reads like this: under setting [7], 105 % of control; under setting [8], 105 % of control; under setting [9], 99 % of control.

`O=NN(CCCl)C(=O)Nc1cc(=O)[nH]c(SCc2ccccc2)n1`: the T/C is 151 % of control (dose: 10.06 mg/kg/injection, schedule: Q04DX002 (ip), vehicle: Klucel (hydroxypropylcellulose) (HPC)); 158 % of control (dose: 40.25 mg/kg/injection, schedule: Q04DX002 (ip), vehicle: Klucel (hydroxypropylcellulose) (HPC)); 178 % of control (dose: 80.5 mg/kg/injection, schedule: Q04DX002 (ip), vehicle: Klucel (hydroxypropylcellulose) (HPC)); 150 % of control and 158 % of control (dose: 161.0 mg/kg/injection, schedule: Q04DX002 (ip), vehicle: Klucel (hydroxypropylcellulose) (HPC)); 101 % of control (dose: 322.0 mg/kg/injection, schedule: Q04DX002 (ip), vehicle: Klucel (hydroxypropylcellulose) (HPC)).

Take `Oc1cc(O)cc(/C=C/c2ccc(O)c(O)c2)c1`: the T/C by setting is: (dose: 3.12 mg/kg/injection, schedule: Q01DX009 (ip), vehicle: DMSO) 109 % of control; (dose: 6.25 mg/kg/injection, schedule: Q01DX009 (ip), vehicle: DMSO) 114 % of control; (dose: 12.5 mg/kg/injection, schedule: Q01DX009 (ip), vehicle: DMSO) 118 % of control; (dose: 25.0 mg/kg/injection, schedule: Q01DX009 (ip), vehicle: DMSO) 123 % of control.

As to `O=C(NC(Cc1ccc(Cl)cc1)C(=O)O)c1ccccc1` (configuration not stated), the T/C was 98 % of control (dose: 25.0 mg/kg/injection, schedule: Q01DX009 (ip), vehicle: other); 97 % of control (dose: 50.0 mg/kg/injection, schedule: Q01DX009 (ip), vehicle: other); 106 % of control (dose: 100.0 mg/kg/injection, schedule: Q01DX009 (ip), vehicle: other).

As to `O=C1CS(=O)(=O)C(c2cccs2)N1CCN1C(=O)CS(=O)(=O)C1c1cccs1` (configuration not stated), the T/C (dose: 100.0 mg/kg/injection, schedule: Q04DX002 (ip), vehicle: saline with Tween-80) is 97 % of control and 94 % of control; the T/C (dose: 200.0 mg/kg/injection, schedule: Q04DX002 (ip), vehicle: saline with Tween-80) was 94 % of control and 93 % of control; the T/C (dose: 400.0 mg/kg/injection, schedule: Q04DX002 (ip), vehicle: saline with Tween-80) was 92 % of control and 90 % of control.

As for `O=C1CSC(c2ccccc2Cl)N1c1nncs1` (configuration not stated), the T/C is, setting by setting: under setting [10], 103 % of control; under setting [11], 98 % of control; under setting [12], 104 % of control.

With `Cc1ccc(S(=O)(=O)c2cnc(N3CCN(C)CC3)nc2N)cc1`, the T/C (dose: 100.0 mg/kg/injection, schedule: Q04DX002 (ip), vehicle: saline) is 100 % of control; the T/C (dose: 200.0 mg/kg/injection, schedule: Q04DX002 (ip), vehicle: saline) was 100 % of control; the T/C (dose: 400.0 mg/kg/injection, schedule: Q04DX002 (ip), vehicle: saline) is 93 % of control.

For the compound `CCCCC1C(=S)N(c2ccccc2)N(c2ccccc2)C1=S`, the T/C is, setting by setting: under setting [7], 101 % of control; under setting [8], 94 % of control; under setting [9], 97 % of control.

`COC(=O)c1c(C(=O)OC)c(-c2cccc(Cl)c2)n2c1CCC2`: the T/C is 98 % of control under setting [6]; 100 % of control under setting [1]; 100 % of control and 93 % of control under setting [2]; 100 % of control (dose: 200.0 mg/kg/injection, schedule: Q01DX005 (ip), vehicle: saline with Tween-80).

`CC(C)CC(NC(=O)C(Cc1ccccc1)NC(=O)OCCc1ccccn1)C(=O)OC(C)(C)C` (configuration not stated): the T/C is 101 % of control (dose: 60.0 mg/kg/injection, schedule: Q01DX005 (ip), vehicle: saline); 95 % of control (dose: 120.0 mg/kg/injection, schedule: Q01DX005 (ip), vehicle: saline); 87 % of control (dose: 240.0 mg/kg/injection, schedule: Q01DX005 (ip), vehicle: saline).

Turning to `CCCCCCCCC1OCN2CC(CC)CCC12` (configuration not stated), the T/C is 107 % of control (dose: 50.0 mg/kg/injection, schedule: Q01DX005 (ip), vehicle: saline); 108 % of control (dose: 100.0 mg/kg/injection, schedule: Q01DX005 (ip), vehicle: saline); 108 % of control (dose: 200.0 mg/kg/injection, schedule: Q01DX005 (ip), vehicle: saline).

The values above are taken from PubChem BioAssay AID330 (DTP/NCI, 2004).
